Marks after values point to notes of the source that are not given here.
Experiments:
ovariectomized ddY mouse = assay: Therapeutic effect in the ovariectomized osteoporetic mouse model (trabecular bone volume of the femur); format: in vivo, ddY mice; details: 50 mg/kg/day oral gavage for 4 weeks from 4 weeks after ovariectomy, salts (methansulfonic acid or HCl); for change in vivo at 50 mg/kg: Mus musculus, 672 h, read-out: Changes on TBV (% changes vs vehicle control)
Outline: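 Female ddY mice, bilaterally ovariectomized; benzamidine salts (methanesulfonate or HCl) given orally at 50 mg/kg/day for 4 weeks, starting 4 weeks post-surgery. Femoral trabecular bone volume (%) measured histomorphometrically on H&E sections of trochlea epiphyseal region; reported as percentage change versus vehicle control.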

[1] = test system: rat models subjected to rib fracture; assay: Effect of promoting fracture healing in rib fracture-induced rat model (callus volume, callus osteoid volume); format: in vivo, SD rats; details: for Changes on callus volume (mm^3): 200 mg/kg oral once a day for 2 weeks from day 2 of surgery, 8th and 9th ribs, vehicle control 37.22 ± 8.23; for Changes on callus osteoid volume (OV/callus, %): 200 mg/kg oral once a day for 2 weeks, 8th rib, vehicle control 35.88 ± 5.06
Description: The benzamidine compounds were assayed for therapeutic effect on bone fracture in rat models subjected to rib fracture. Benzamidine derivates are dosed from 2 days after operation for 2 weeks, and the changes on the volume and histology of callus were observed.
A total of 54 SD rats (8 weeks old upon receipt, Jung Ang Lab. Animal Co., Korea) were used. While being housed at a density of three to a plastic cage, the experimental animals were kept in a breeding room under controlled temperature (20-25° C.) and humidity (30-35%). Under light-dark cycles of 12 hours, the rats were allowed to have free access to feedstuff and tap water.
200 mg of benzamidine compounds (Methansulfonic acid or Hydrochloride) were completely dissolved in 5 ml of sterilized distilled water. The benzamidine derivatives in the solutions was orally administered at doses of 200 mg per kg of body weight once a day for 2 weeks from day 2 of the surgery.
8th and 9th rib of each animal was exposed by general operation under ketamine HCl and xylazine HCl anesthesia, and the exposed ribs were crossly dissected using surgical scissors. After rib-fracture, surgical wounds were closed with general skin suture.
8th and 9th ribs of each animal were separated at sacrifice and then the long axis and short axis of callus were calculated as mm units. The volume of callus was calculated as following Equation 2. Callus volume(mm^3)=(a×b^2)/2 Equation 2 • a: long diameter of bony callus • b: short diameter of bony callus
The 8th rib including fracture sites of each rat was separated and fixed in 10% neutral buffered formalin, and then decalcified in decalcifying solution (24.4% formic acid, and 0.5N sodium hydroxide) for 5 days (mixed decalcifying solution was exchanges once a day for 5 days). After decalcification, the rib was embedded in paraffin, sectioned (3˜4 μm) and stained with hematoxylin-eosin or Masson's trichrome for composition of callus observation.
Osteloid volume (OV/callus) in callus regions of prepared histological specimens were detected as % levels using automated image analysis (analySIS Image Processing; SIS, Germany) under microscopy.

osteoblast = assay: Effect on bone formation (osteoblast nodule mineralization, Alizarin red S); format: cell-based, ICR mice; details: calvarial osteoblast in osteogenic differentiation medium
Description: The osteoblast, treated in this experiment, was prepared from the osteoblast as prepared in the above.
The osteoblast, isolated from sequential enzymatic treatment of calvariae from neonated ICR mice, was cultured in α-MEM medium containing 10% FBS for 4˜5 days. The osteoblast was also cultured for 24 hr after seeding the cells on a 12 well plate (10^5 cell/well), and medium was exchanged with the osteogenic differentiation medium containing 10 mM β-glycerophosphate and 50 μg/ml ascorbic acid.
The test substances at the concentration of 0.1 uM and 0.1 nM were added to the above medium for evaluating the effect promoting bone formation. The differentiation medium containing the test substances was exchanged every 3 or 4 days for 14 to 21 days until confirming the nodule mineralization.
The cell was rinsed twice with distilled water, and fixed by the 10% formalin solutions for 30 minutes. Alizarin red S and Von-kossa Solution were treated on the plate for measuring deposited calcium and phosphate in cell matrix, and the activity of the test substances on the bone formation was analyzed by determining stained area.
Additionally, for the purpose of estimating quantitative Arizarin red S in cell matrix, stained Arizarin red S was extracted by treating 10 mM sodium phosphate solution (pH 7.0), containing 10% cetylpyridinium chloride, for 15˜30 minutes in the shaking incubator, and then the amount of the deposited calcium was estimated by calculating the absorbance of the extracted Arizarin red S at 564 nm. […]

cells = assay: Cytotoxicity test (MTT); format: cell-based; details: 10^−6M, 72 hrs, compared with the control group
Outline: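 Benzamidine derivatives were checked for cytotoxicity with an MTT assay. Test substances were diluted in a suitable solvent to 10^−2M. Cells were seeded at 1×10^4 cell/100 μL per well in 96-well microplates and grown for 72 hrs. During the final 4 hrs, 25 μL of MTT (2 mg/mL in PBS) was added. Plates were then centrifuged, the medium removed, formazan dissolved in 100 μL DMSO, and absorbance read at 540 nm.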

Structure (SMILES)	change in vivo at 50 mg/kg (ovariectomized ddY mouse)	Changes on callus volume (mm^3) [1]	Changes on callus osteoid volume (OV/callus, %) [1]	melting point	bone forming activity (%) (osteoblast; 0.1 nM)	bone forming activity (%) (osteoblast; 0.1 μM)	Changes on TBV (% changes vs vehicle control) (ovariectomized ddY mouse)	Survival rates of the cells (cells; MC3T3-E1 cells)	Survival rates of the cells (cells; ST2 cells)
Cc1sc(-c2cccnc2)nc1-c1ccc(OCCCCCOc2ccc(C(=N)NO)cc2)cc1 [Example 13, N-hydroxy-4-(5-[4-(5-methyl-2-pyridin-3-yl-1,3-thiazol-4-yl)phenoxy]pentoxy)-benzamidine]	82%	23.15 ± 7.85* mm^3	43.19 ± 4.47 %	138 to 150 °C	–	–	–	–	–
CC(C)c1nc(-c2ccc(OCCCCCOc3ccc(C(=N)NO)cc3)cc2)c(CC2CCCC2)s1 [Example 47, N-hydroxy-4-(5-[4-(5-cyclopentylnnethyl-2-isopropyl-1,3-thiazol-4-yl)phenoxy]pentoxy)-benzamidine]	–	27.56 ± 6.94** mm^3	45.69 ± 7.07%	–	9.4%	11.31%	139.8%	54.2%	24.0%
CCCN(CCC)c1nc(-c2ccc(OCCCCCOc3ccc(C(=N)NO)cc3)cc2)c(CC)s1 [Example 138, N-hydroxy-4-(5-[4-(2-dipropylamino-5-ethyl-1,3-thiazol-4-yl)phenoxy]pentoxy)-benzamidine]	164%	27.34 ± 5.46* mm^3	53.83 ± 7.84 %	–	8.81%	6.32%	–	–	–
